Where a name gives a salt, the structure may show the parent alone.
How the values were obtained:
human V1a receptors [1] = biological target: T1, human V1a receptors (Homo sapiens, UniProt P37288); assay: Displacement of [3H]-AVP at V1a receptors (binding affinity); conditions: for IC50: affinity at human V1a receptors, [3H]-AVP displacement; for selectivity for the human V1a and V1b receptors for AVP (in words): versus V2 / oxytocin receptors
Experimental: The affinity of the compounds of formula (I) according to the invention for the arginine-vasopressin V1a receptors was determined in vitro using the method described by M. Thibonnier et al., J. Biol. Chem., 1994, 269, 3304-3310. This method consisted in studying in vitro the displacement of tritiated arginine-vasopressin ([3H]-AVP) at the V1a receptors present on membrane or cell preparations carrying the rat or human V1a receptors.

human V1b receptors = biological target: T2, human V1b receptors (Homo sapiens, UniProt P47901); assay: Displacement of [3H]-AVP at V1b receptors (binding affinity); conditions: [3H]-AVP displacement
T2 sequence (P47901 1-424): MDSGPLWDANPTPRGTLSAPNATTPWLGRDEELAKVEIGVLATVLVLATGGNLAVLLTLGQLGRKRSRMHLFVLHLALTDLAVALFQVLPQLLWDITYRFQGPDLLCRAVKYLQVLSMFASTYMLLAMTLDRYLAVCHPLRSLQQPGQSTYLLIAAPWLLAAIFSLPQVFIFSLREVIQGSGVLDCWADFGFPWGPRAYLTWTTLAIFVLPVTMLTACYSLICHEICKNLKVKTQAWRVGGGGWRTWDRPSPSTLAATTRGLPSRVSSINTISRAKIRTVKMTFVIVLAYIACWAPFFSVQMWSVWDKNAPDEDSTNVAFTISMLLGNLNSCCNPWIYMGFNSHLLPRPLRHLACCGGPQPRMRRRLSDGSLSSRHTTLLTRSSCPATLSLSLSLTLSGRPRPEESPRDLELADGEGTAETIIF
Experimental: The affinity of the compounds of formula (I) according to the invention for the arginine-vasopressin V1b receptors was determined in vitro using the method described by Y. de Keyser et al. in Febs Letters, 1994, 356, 215-220. This method consists in studying in vitro the displacement of tritiated arginine-vasopressin ([3H]-AVP) at the V1b receptors present on cell preparations carrying the human V1b receptors.

human V2 receptors = human V2 receptors (Homo sapiens, UniProt P30518); assay: Affinity for vasopressin V2 receptors; assay type: binding; conditions: for IC50: affinity at human V2 receptors
Chain of human V2 receptors (P30518 whole entry): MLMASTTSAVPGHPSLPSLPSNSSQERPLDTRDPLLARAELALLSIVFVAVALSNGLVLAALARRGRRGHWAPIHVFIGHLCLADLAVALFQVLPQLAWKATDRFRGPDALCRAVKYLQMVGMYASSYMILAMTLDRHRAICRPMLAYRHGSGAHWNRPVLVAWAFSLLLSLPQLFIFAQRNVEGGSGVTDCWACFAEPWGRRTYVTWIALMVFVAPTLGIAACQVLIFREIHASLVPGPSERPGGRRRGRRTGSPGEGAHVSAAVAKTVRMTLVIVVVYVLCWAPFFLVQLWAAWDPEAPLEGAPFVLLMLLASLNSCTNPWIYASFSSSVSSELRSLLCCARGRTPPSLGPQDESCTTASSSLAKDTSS
Text: Th affinity of the compounds of formula (I) according to the invention for the vasopressin V2 receptors was also studied (method described by M. Birnbaumer et al. in Nature (Lond.), 1992, 357, 333-335).

[2] = biological target: T3, human uterine oxytocin receptor (Homo sapiens, UniProt P30559); assay: Displacement of radioiodinated oxytocin analogue at oxytocin receptors; assay type: binding; conditions: for IC50: affinity at human oxytocin receptors
T3 construct: expressed in transfected cells
T3 sequence (P30559 1-389): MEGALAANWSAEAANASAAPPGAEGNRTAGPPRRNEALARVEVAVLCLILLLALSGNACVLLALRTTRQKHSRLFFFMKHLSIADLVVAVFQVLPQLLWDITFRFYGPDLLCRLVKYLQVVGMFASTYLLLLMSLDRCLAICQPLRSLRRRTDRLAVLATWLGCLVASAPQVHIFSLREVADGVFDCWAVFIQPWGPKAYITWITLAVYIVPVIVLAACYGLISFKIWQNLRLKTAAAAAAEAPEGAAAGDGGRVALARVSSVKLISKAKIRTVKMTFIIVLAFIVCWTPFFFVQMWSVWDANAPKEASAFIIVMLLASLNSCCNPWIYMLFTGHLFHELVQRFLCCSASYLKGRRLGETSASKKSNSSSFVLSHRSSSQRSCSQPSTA
Experimental: The affinity of the compounds according to the invention for the oxytocin receptors was determined in an in vitro binding test using the method described by J. Elands et al. in Eur. J. Pharmacol., 1987, 147, 197-207. This method consists in studying in vitro the displacement of a radioiodinated analogue of oxytocin at the oxytocin receptors in a membrane preparation of cells transfected with the human uterine oxytocin receptor.

human V1a receptors [3] = biological target: T1, human V1a receptors; assay: Intracellular calcium measurement (FLIPR) on cells expressing V1a receptors; assay type: cell-based; conditions: FLIPR and platelet aggregation tests; blocking effects caused by arginine-vasopressin
Experimental: The agonist or antagonist character of the compounds is determined in vitro in a test for measuring intracellular calcium (FLIPR) on cells expressing the human V1a receptors according to the general technique described in Sullivan et al, Methods Mol. Biol., 1999, 114, 125-133, using 1 μM Fluo-4 AM and in an AVP-induced platelet aggregation test on human PRP (platelet rich plasma) according to the methodology described in J. Clin. Invest., 1993, 92, 224.231. The compounds are preincubated for 30 minutes before the addition of arginine vasopressin in order to determine the agonist and antagonist properties of these molecules.

T1 sequence (P37288 whole entry): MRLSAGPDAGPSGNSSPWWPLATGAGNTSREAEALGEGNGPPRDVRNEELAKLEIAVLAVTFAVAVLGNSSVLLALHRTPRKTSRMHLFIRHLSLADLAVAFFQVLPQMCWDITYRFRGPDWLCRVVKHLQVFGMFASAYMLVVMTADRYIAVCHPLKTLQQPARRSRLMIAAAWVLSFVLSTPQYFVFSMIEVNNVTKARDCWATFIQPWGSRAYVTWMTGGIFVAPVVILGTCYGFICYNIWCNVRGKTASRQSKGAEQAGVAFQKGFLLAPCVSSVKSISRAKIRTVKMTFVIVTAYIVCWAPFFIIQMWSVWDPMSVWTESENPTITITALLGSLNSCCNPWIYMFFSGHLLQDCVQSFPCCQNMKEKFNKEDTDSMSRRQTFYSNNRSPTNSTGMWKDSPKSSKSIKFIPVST

COc1ccc2c(n1)C(CCCCN1CCNCC1)(c1ccccc1F)C(=O)N2S(=O)(=O)c1ccc(OC(C)C)cc1 (racemic) (as salt: HCl) [Compound No. 10, 3-(2-Fluorophenyl)-1-[(4-isopropoxyphenyl)sulphonyl]-5-methoxy-3-(4-piperazin-1-ylbutyl)-1,3-dihydro-2H-pyrrolo[3,2-b]pyridin-2-one]
melting point: 210 °C

COc1cccc(S(=O)(=O)N2C(=O)C(CCCN3CCCCC3)(c3ccccc3F)c3nc(OC)ccc32)c1.Cl (single isomer, unassigned)
melting point: 148 °C

COc1cccc(S(=O)(=O)N2C(=O)C(CCCN3CCNCC3)(c3ccccc3F)c3nc(OC)ccc32)c1.Cl (single isomer, unassigned)
melting point: 178 °C

COc1ccc2c(n1)C(CCCN1CCNCC1)(c1ccccc1F)C(=O)N2S(=O)(=O)c1ccc(OC(C)C)cc1 (centres unmarked) (as salt: HCl) [Compound No. 2, 3-(2-fluorophenyl)-1-[(4-isopropoxyphenyl)sulphonyl]-5-methoxy-3-(3-piperazin-1-ylpropyl)-1,3-dihydro-2H-pyrrolo[3,2-b]pyridin-2-one]
melting point: 123 °C

COc1ccc2c(n1)C(CCCN1CCN(C)CC1)(c1ccccc1F)C(=O)N2S(=O)(=O)c1ccc(OC(C)C)cc1 (centres unmarked) (as salt: HCl) [compound 11, 3-(2-fluorophenyl)-1-[(4-isopropoxyphenyl)sulphonyl]-5-methoxy-3-[3-(4-methylpiperazin-1-yl)propyl]-1,3-dihydro-2H-pyrrolo[3,2-b]pyridin-2-one]
melting point: 190 °C

COc1ccc2c(n1)C(CCCN1CCNCC1)(c1ccccc1F)C(=O)N2S(=O)(=O)c1cccc(Cl)c1 (centres unmarked) (as salt: HCl) [compound 4, 1-[(3-chlorophenyl)sulphonyl]-3-(2-fluorophenyl)-5-methoxy-3-(3-piperazin-1-ylpropyl)-1,3-dihydro-2H-pyrrolo[3,2-b]pyridin-2-one]
melting point: 177 °C

COc1ccc2c(n1)C(CCCN1CCCCC1)(c1ccccc1F)C(=O)N2S(=O)(=O)c1ccc(OC(F)F)cc1 (centres unmarked) (as salt: HCl)
melting point: 133 °C

COc1ccc2c(n1)C(CCCN1CCCCC1)(c1ccccc1F)C(=O)N2S(=O)(=O)c1cccc(Cl)c1 (centres unmarked) (as salt: HCl)
melting point: 148 °C

COc1ccc2c(n1)C(CCCN1CCCCC1)(c1ccccc1F)C(=O)N2S(=O)(=O)c1ccc(OC(C)C)cc1 (centres unmarked) (as salt: HCl)
melting point: 157 °C

COc1ccc2c(n1)C(CCCN1CCNCC1)(c1ccccc1F)C(=O)N2S(=O)(=O)c1cccc(Cl)c1 (centres unmarked) [compound 4, 1-[(3-chlorophenyl)sulphonyl]-3-(2-fluorophenyl)-5-methoxy-3-(3-piperazin-1-ylpropyl)-1,3-dihydro-2H-pyrrolo[3,2-b]pyridin-2-one]
IC50 (human V1a receptors [1]): 8.9 nM
IC50 (human V1b receptors): > 1000 nM
IC50 (human V2 receptors): > 1000 nM
IC50 [2]: > 1000 nM

COc1ccc2c(n1)C(CCCN1CCNCC1)(c1ccccc1F)C(=O)N2S(=O)(=O)c1ccc(OC(C)C)cc1 (centres unmarked) [Compound No. 2, 3-(2-fluorophenyl)-1-[(4-isopropoxyphenyl)sulphonyl]-5-methoxy-3-(3-piperazin-1-ylpropyl)-1,3-dihydro-2H-pyrrolo[3,2-b]pyridin-2-one]
IC50 (human V1a receptors [1]): 0.82 nM
IC50 (human V1b receptors): 350 nM
IC50 (human V2 receptors): 120 nM
IC50 [2]: 71 nM

COc1ccc2c(n1)C(CCCCN1CCN(C)CC1)(c1ccccc1F)C(=O)N2S(=O)(=O)c1ccc(OC(C)C)cc1 (centres unmarked) (as salt: salt)
melting point: 52 °C

COc1ccc2c(n1)C(CCCCN1CCNCC1)(c1ccccc1F)C(=O)N2S(=O)(=O)c1ccc(OC(C)C)cc1 (centres unmarked) (as salt: HCl) [compound 14, 3-(2-fluorophenyl)-1-[(4-isopropoxyphenyl)sulphonyl]-5-methoxy-3-(4-piperazin-1-ylbutyl)-1,3-dihydro-2H-pyrrolo[3,2-b]pyridin-2-one]
melting point: 133 °C

COc1ccc2c(n1)C(CCCN1CCN(C)CC1)(c1ccccc1F)C(=O)N2S(=O)(=O)c1ccc(OC(C)C)cc1 (centres unmarked) [compound 11, 3-(2-fluorophenyl)-1-[(4-isopropoxyphenyl)sulphonyl]-5-methoxy-3-[3-(4-methylpiperazin-1-yl)propyl]-1,3-dihydro-2H-pyrrolo[3,2-b]pyridin-2-one]
IC50 (human V1a receptors [1]): 7.1 nM
IC50 (human V1b receptors): > 1000 nM
IC50 (human V2 receptors): 210 nM
IC50 [2]: 100 nM

COc1ccc2c(n1)C(CCCN1CCNCC1)(c1ccccc1F)C(=O)N2S(=O)(=O)c1cccc(Cl)c1 (centres unmarked) [No. 4]
agonist or antagonist character (human V1a receptors [3]): V1a receptor antagonists

CCN(CC)C(=O)Nc1ccc(S(=O)(=O)N2C(=O)C(NCCC3CCNCC3)(c3ccccc3Cl)c3cc(Cl)c(C)cc32)cc1 (stereo not drawn) [Compound β, 3-[4-[[5-chloro-3-(2-chlorophenyl)-6-methyl-2-oxo-3-[(2-piperidin-4-ylethyl)amino]-2,3-dihydro-1H-indol-1-yl]sulphonyl]phenyl]-1-diethylurea]
affinity for the human V1a receptors for AVP (in words) (human V1a receptors [1]): good affinity
IC50 (human V1a receptors [1]): 18 nM
selectivity for the human V1a and V1b receptors for AVP (in words) (human V1a receptors [1]): not therefore selective
IC50 (human V1b receptors): 180 nM
affinity for the human V2 receptors for AVP (in words) (human V2 receptors): good affinity
IC50 (human V2 receptors): 13 nM
IC50 [2]: 69 nM

CCN(CC)C(=O)Nc1ccc(S(=O)(=O)N2C(=O)C(NCCC3CCNCC3)(c3ccccc3Cl)c3cc(Cl)c(Cl)cc32)cc1 (stereo not drawn) [Compound α, 3-[4-[[5,6-dichloro-3-(2-chlorophenyl)-2-oxo-3-[(2-piperidin-4-ylethyl)amino]-2,3-dihydro-1H-indol-1-yl]sulphonyl]phenyl]-1,1-diethylurea]
affinity for the human V1a receptors for AVP (in words) (human V1a receptors [1]): good affinity
IC50 (human V1a receptors [1]): 23 nM
selectivity for the human V1a and V1b receptors for AVP (in words) (human V1a receptors [1]): not therefore selective
IC50 (human V1b receptors): 210 nM
affinity for the human V2 receptors for AVP (in words) (human V2 receptors): good affinity
IC50 (human V2 receptors): 19 nM
affinity for the oxytocin receptors (in words) [2]: good affinity
IC50 [2]: 100 nM

Cc1ccc2c(n1)C(CCCN1CCNCC1)(c1ccccc1F)C(=O)N2S(=O)(=O)c1ccc(OC(C)C)cc1.Cl (single isomer, unassigned)
melting point: 150 °C

COc1ccc2c(n1)C(CCCN1CCNCC1)(c1ccccc1F)C(=O)N2S(=O)(=O)c1ccc(OC(C)C)cc1 (centres unmarked) [No. 2]
agonist or antagonist character (human V1a receptors [3]): V1a receptor antagonists

Source: patent US8324214B2, “1,3-dihydro-2H-pyrrolo[3,2-bpyridin-2-one derivatives, preparation thereof and therapeutic uses thereof” (Sanofi, priority 2008, dated 2012)
